The values below come from publication PMC9492542, “Brain-restricted mTOR inhibition with binary pharmacology” (Nature, 2022).

Test [1] has as its system human PBMCs. Nature of the test: Proliferation of anti-CD3/anti-CD28 stimulated PBMCs (120 h). The test is classed as cell-based. The arrangement: PBMC cell proliferation: unit not given here.
The test system of test [2] is human PBMCs. Nature of the test: IL-2 secretion of stimulated PBMCs (sandwich ELISA). The test is classed as cell-based. Also on record: unit not given here.
Test [3] deals with MTORC1. To be noted: read-out: Kd4 (drug binding to MTORC1 without FKBP); ref Banaszynski et al, PMID 15796538; cited from earlier work.
The nature of test [4]: Cellular activity of FKBP-binding bifunctional kinase inhibitors, with or without RapaBlock. The test is classed as cell-based.
[5] abbreviates: 0.005081 nM Rapamycin, +10 µM RapaBlock.
[6] abbreviates: 0.005081 nM Rapamycin, No RapaBlock.
Where [7] appears, read: 0.015242 nM Rapamycin, +10 µM RapaBlock.
[8] abbreviates: 0.015242 nM Rapamycin, No RapaBlock.
Setting [9] is: 0.045725 nM Rapamycin, +10 µM RapaBlock.
The mark [10] stands for this setting: 0.045725 nM Rapamycin, No RapaBlock.
The mark [11] stands for this setting: 0.137174 nM Rapamycin, No RapaBlock.
[12] abbreviates: 0.411523 nM Rapamycin, +10 µM RapaBlock.
[13] abbreviates: 0.411523 nM Rapamycin, No RapaBlock.
Setting [14] is: 1.23457 nM Rapamycin, No RapaBlock.
The mark [15] stands for this setting: 3.7037 nM Rapamycin, +10 µM RapaBlock.
Where [16] appears, read: 3.7037 nM Rapamycin, No RapaBlock.
[17] abbreviates: 11.1111 nM Rapamycin, +10 μM RapaBlock.
The mark [18] stands for this setting: 11.1111 nM Rapamycin, No RapaBlock.
Setting [19] is: 33.3333 nM Rapamycin, +10 μM RapaBlock.
[20] abbreviates: 33.3333 nM Rapamycin, No RapaBlock.
Setting [21] is: 100 nM Rapamycin, +10 μM RapaBlock.

Values joined by “and” are separate entries in the source; they are usually repeats but may differ in a detail not shown here. Equal values may be shown once.

With `CO[C@H]1C[C@@H]2CC[C@@H](C)[C@@](O)(O2)C(=O)C(=O)N2CCCC[C@H]2C(=O)O[C@H]([C@H](C)C[C@@H]2CC[C@@H](O)[C@H](OC)C2)CC(=O)[C@H](C)/C=C(\C)[C@@H](O)[C@@H](OC)C(=O)[C@H](C)C[C@H](C)/C=C/C=C/C=C/1C` [Rapamycin], the PBMC cell proliferation in test [1] (setting [5]) is 90.8; in test [1] (setting [6]), 89.3 and 86.4 and 86.7; in test [1] (setting [7]), 94.6; in test [1] (setting [8]), 70.2 and 84.2 and 80.1; in test [1] (setting [9]), 99.9; in test [1] (setting [10]), 58.9 and 71.7 and 68.2. For the same compound, the PBMC cell proliferation in test [1] (setting [11]) is 55.1 and 66 and 63.4; in test [1] (setting [12]), 100.4; in test [1] (setting [13]), 48.5 and 57.3 and 55.8; in test [1] (setting [14]), 43.2 and 50.6 and 45.3; in test [1] (setting [15]), 92 and 97.7; in test [1] (setting [16]), 44.5 and 45.4 and 43.4. Also, the PBMC cell proliferation in test [1] (setting [17]) was 99 and 90.8 and 96.3; in test [1] (setting [18]), 42 and 45.8 and 42.6; in test [1] (setting [19]) it was 96.2 and 95.1 and 85.5; in test [1] (setting [20]) it was 41.2 and 44.7 and 42.3; in test [1] (setting [21]), 73.2 and 69.6 and 68.3; in test [1] (100 nM Rapamycin, No RapaBlock), 32 and 34 and 31.5. Also, the IL-2 secretion is 3684.01 and 3841.04 and 3311.59 in test [2] (setting [5]); 3505.26 and 3941.8 and 3950.69 in test [2] (setting [6]); 3960.64 and 4023.71 and 3669.35 in test [2] (setting [7]); 3568.59 and 3802.04 and 3829 in test [2] (setting [8]); 3856.22 and 4056.95 and 3791.84 in test [2] (setting [9]); 3351.9 and 3536.4 and 3552.37 in test [2] (setting [10]). Also, the IL-2 secretion in test [2] (0.137174 nM Rapamycin, +10 µM RapaBlock) is 4033.13 and 3577.76 and 4020.83; in test [2] (setting [11]), 2937.87 and 3159.28 and 3403.45; in test [2] (setting [12]) it was 4004.34 and 3499.5 and 3861.19; in test [2] (setting [13]) it was 2246.17 and 2618.32 and 2523.84; in test [2] (1.23457 nM Rapamycin, +10 µM RapaBlock), 4301.65 and 4395.86 and 4103.8; in test [2] (setting [14]), 1538.76 and 1946.24 and 1803.35. In addition, the IL-2 secretion was 4066.89 and 3684.01 and 4230.73 in test [2] (setting [15]); 1476.21 and 1624.34 and 1751.53 in test [2] (setting [16]); 4063.23 and 3946.51 and 4144.88 in test [2] (setting [17]); 1251.92 and 1234.65 and 1398.74 in test [2] (setting [18]); 4013.77 and 3518.61 and 4247.74 in test [2] (setting [19]); 908.82 and 1132.58 and 1090.71 in test [2] (setting [20]). For the same compound, the IL-2 secretion was 4023.19 and 3609.68 and 3592.67 in test [2] (setting [21]); 580.372 and 339.335 and 575.923 in test [2] (100 nM Rapamycin, No RapaBlock). Moreover, in test [3], the Kd was 26 µM.
Regarding `CCC(C)(C)C(=O)C(=O)N1CCCC[C@H]1C(=O)O[C@H](CCc1ccc(OC)c(OC)c1)c1cccc(NC(=O)CCC(=O)N2CCN(c3cc(Nc4ncc(C(=O)Nc5c(C)cccc5Cl)s4)nc(C)n3)CC2)c1` [SLF-Dasatinib], in test [4], the “kinase inhibitor activity in cells” value was “did not have kinase inhibitor activity in cells”.
